{"source": "patent US9480755B2", "about": "“Pharmaceutical composition comprising dapagliflozin and cyclodextrin” (ratiopharm GmbH, priority 2011, dated 2016)", "key": {"[1]": {"procedure": "Literatural examples indicate that the effectiveness of complex formation may be increased upon the addition of hydroxycarboxylic acids, especially citric acid in case the complex forming cyclodextrin or its complex is subject to aggregation. Often this is the case when parent cyclodextrins are applied. […] As a proof of concept, representative isotherm data were determined in the presence of citric acid (added in equimolar ratio with the pharmacon) and compared to the original dissolved concentrations (Table 2)."}, "[2]": {"details": "deionised water; for Dissolved Dapagliflozin: 25 ± 2° C.", "procedure": "The effect of cyclodextrins on the aqueous solubility of dapagliflozin was studied in deionised water at 25±2° C. The solubilizing effect was studied by preparing samples having a cyclodextrin concentration in the range of 1 to 15 wt. %.\nThe following cyclodextrins were used: • b-cyclodextrin (BCD): CYL-2518/2 (Wacker Chemie GmbH) • (2-hydroxy)propyl-b-cyclodextrin (HPBCD): E0062 (Roquette Frères) • sulfobutylether-b-cyclodextrin (SBEBCD): 47K040508 (CycloLab)"}}, "note": "Like-named read-outs stand apart in the source and are kept apart here.", "data": [{"compound": "CCOc1ccc(Cc2cc([C@@H]3O[C@H](CO)[C@@H](O)[C@H](O)[C@H]3O)ccc2Cl)cc1", "note": "[dapagliflozin, (2S,3R,4R,5S,6R)-2-[4-chloro-3-(4-ethoxybenzyl)phenyl]-6-(hydroxymethyl)-tetrahydro-2H-pyran-3,4,5-triol]", "values": [{"measurement": "Dissolved Dapagliflozin", "setting": "[1]; HPBCD 1.0% + 28 mg citric acid (equimolar with the drug)", "result": 4.1, "unit": "mg/mL"}, {"measurement": "Dissolved Dapagliflozin", "setting": "[1]; HPBCD 2.5% + 28 mg citric acid (equimolar with the drug)", "result": 8.1, "unit": "mg/mL"}, {"measurement": "Dissolved Dapagliflozin", "setting": "[1]; HPBCD 5.0% + 28 mg citric acid (equimolar with the drug)", "result": 14.3, "unit": "mg/mL"}, {"measurement": "Dissolved Dapagliflozin", "setting": "[2]; BCD 0.5 wt. %", "result": 3.3, "unit": "mg/mL"}, {"measurement": "Dissolved Dapagliflozin", "setting": "[2]; BCD 1.0 wt. %", "result": 4.7, "unit": "mg/mL"}, {"measurement": "Dissolved Dapagliflozin", "setting": "[2]; BCD 1.5 wt. %", "result": 6.3, "unit": "mg/mL"}, {"measurement": "Dissolved Dapagliflozin", "setting": "[2]; BCD 2.0 wt. %", "result": 7.7, "unit": "mg/mL"}, {"measurement": "Dissolved Dapagliflozin", "setting": "[2]; HPBCD 1.0 wt. %", "result": 4.4, "unit": "mg/mL"}, {"measurement": "Dissolved Dapagliflozin", "setting": "[2]; HPBCD 2.0 wt. %", "result": 7.2, "unit": "mg/mL"}, {"measurement": "Dissolved Dapagliflozin", "setting": "[2]; HPBCD 2.5 wt. %", "result": 8.6, "unit": "mg/mL"}, {"measurement": "Dissolved Dapagliflozin", "setting": "[2]; HPBCD 3.0 wt. %", "result": 9.7, "unit": "mg/mL"}, {"measurement": "Dissolved Dapagliflozin", "setting": "[2]; HPBCD 4.0 wt. %", "result": 12.5, "unit": "mg/mL"}, {"measurement": "Dissolved Dapagliflozin", "setting": "[2]; HPBCD 5.0 wt. %", "result": 14.4, "unit": "mg/mL"}, {"measurement": "Dissolved Dapagliflozin", "setting": "[2]; HPBCD 10.0 wt. %", "result": 14.1, "unit": "mg/mL"}, {"measurement": "Dissolved Dapagliflozin", "setting": "[2]; HPBCD 15.0 wt. %", "result": 14.0, "unit": "mg/mL"}, {"measurement": "Dissolved Dapagliflozin", "setting": "[2]; HPGCD 1.0 wt. %", "result": 4.2, "unit": "mg/mL"}, {"measurement": "Dissolved Dapagliflozin", "setting": "[2]; HPGCD 5.0 wt. %", "result": 11.3, "unit": "mg/mL"}, {"measurement": "Dissolved Dapagliflozin", "setting": "[2]; HPGCD 10.0 wt. %", "result": 14.9, "unit": "mg/mL"}, {"measurement": "Dissolved Dapagliflozin", "setting": "[2]; HPGCD 15.0 wt. %", "result": 14.4, "unit": "mg/mL"}, {"measurement": "Dissolved Dapagliflozin", "setting": "[2]; SBEBCD 1.0 wt. %", "result": 3.8, "unit": "mg/mL"}, {"measurement": "Dissolved Dapagliflozin", "setting": "[2]; SBEBCD 5.0 wt. %", "result": 10.7, "unit": "mg/mL"}, {"measurement": "Dissolved Dapagliflozin", "setting": "[2]; SBEBCD 10.0 wt. %", "result": 13.1, "unit": "mg/mL"}, {"measurement": "Dissolved Dapagliflozin", "setting": "[2]; SBEBCD 15.0 wt. %", "result": 12.8, "unit": "mg/mL"}, {"measurement": "Dissolved Dapagliflozin", "setting": "[2]; no cyclodextrin", "result": 1.6, "unit": "mg/mL"}, {"measurement": "effect of the interactions with cyclodextrins on solubility", "setting": "[2]; cyclodextrin-concentration dependent", "result": "significant solubility enhancement"}]}]}
